According to ChEMBL document CHEMBL1153192, “Macrocyclic BACE-1 inhibitors acutely reduce Abeta in brain after po application” (Bioorg Med Chem Lett, 2010):

Key:
MDR1 = test: Apparent permeability from apical to basolateral side of MDCK cells expressing MDR1; type: ADME, cell-based, Canis lupus familiaris; conditions: dog
[1] = Dissociation constant, pKa of the compound; type: physicochemical
[2] = Drug level in APP50/16 tg mouse brain at 60 umol/kg, po after 4 hrs; type: ADME, organism-based; conditions: APP50/16 transgenic, read-out: Drug uptake
[3] = Plasma concentration in APP50/16 tg mouse at 60 umol/kg, po after 4 hrs; type: ADME, organism-based; conditions: APP50/16 transgenic

Papp A→B (MDR1) [×10⁻⁶ cm/s]	pKa [1]	concentration at 4 h [2] [nM]	concentration at 4 h [3] [nM]	Compound
1.8	–	–	–	COCc1cc2cc(c1)C(=O)N[C@H]([C@H](O)CNC(C)(C)c1cccc(C(C)C)c1)Cc1cccc(c1)OCCCCN2
0.28	–	–	–	CCCS(=O)(=O)N(C)c1cc2cc(c1)C(=O)N[C@H]([C@H](O)CNC1(c3cccc(C(C)C)c3)CC1)Cc1cccc(c1)OCCCCN2
1.4	–	–	–	COCc1cc2cc(c1)C(=O)N[C@H]([C@H](O)CNC1(c3cccc(C(C)(C)C)c3)CCCC1)Cc1cccc(c1)OCCCCN2
0.95	–	–	–	CCCS(=O)(=O)N(C)c1cc2cc(c1)C(=O)N[C@H]([C@H](O)CNCc1cccc(C(C)C)c1)Cc1cccc(c1)OCCCCN2
3.1	7.3	250	1200	COCc1cc2cc(c1)C(=O)N[C@H]([C@H](O)CNC1(c3cccc(C(C)C)c3)CC1)Cc1cccc(c1)OCCCCN2
1.2	–	–	–	COCc1cc2cc(c1)C(=O)N[C@H]([C@H](O)CNC1(c3cccc(C(C)(C)C)c3)CCC1)Cc1cccc(c1)OCCCCN2
1.3	8.5	–	–	Cc1cc2cc(n1)OCCCCOc1cccc(c1)C[C@@H]([C@H](O)CNC(C)c1cccc(C(C)C)c1)NC2=O (stereo not given in full)
0.17	–	–	–	Cc1cc2cc(n1)NCCCCOc1cccc(c1)C[C@@H]([C@H](O)CNCc1cccc(C(C)C)c1)NC2=O
0.4	–	–	–	CC(C)c1cccc(C2(NC[C@@H](O)[C@@H]3Cc4cccc(c4)OCCCCOc4cc(cc(N5CCCC5=O)c4)C(=O)N3)CC2)c1
1.3	–	40	30	Cc1cc2cc(n1)OCCCCOc1cccc(c1)C[C@@H]([C@H](O)CNCc1cccc(C(C)C)c1)NC2=O
0.11	–	–	–	CC(C)c1cccc(CNC[C@@H](O)[C@@H]2Cc3cccc(c3)OCCCCNc3cc(cc(N4C=COC4)c3)C(=O)N2)c1
4	–	320	3000	Cc1cc2cc(n1)OCCCCOc1cccc(c1)C[C@@H]([C@H](O)CNC1(c3cccc(C(C)C)c3)CC1)NC2=O
2	–	–	–	CC(C)c1cccc(CNC[C@@H](O)[C@@H]2Cc3cccc(c3)OCCCCNc3cccc(c3)C(=O)N2)c1
5.6	3.8	–	–	COCc1cc2cc(c1)C(=O)N[C@H]([C@H](O)CNC(c1cccc(C(C)(C)C)c1)C(F)(F)F)Cc1cccc(c1)OCCCCN2 (stereo not given in full)
1.3	–	–	–	COCc1cc2cc(c1)C(=O)N[C@H]([C@H](O)CNC(COC)c1cccc(C(C)(C)C)c1)Cc1cccc(c1)OCCCCN2 (stereo not given in full)
3.8	7.2	–	–	COCc1cc2cc(c1)C(=O)N[C@H]([C@H](O)CNC(CF)c1cccc(C(C)(C)C)c1)Cc1cccc(c1)OCCCCN2 (stereo not given in full)
4.9	–	540	2200	COCc1cc2cc(n1)OCCCCOc1cccc(c1)C[C@@H]([C@H](O)CNC1(c3cccc(C(C)C)c3)CC1)NC2=O
0.16	–	–	–	COCc1cc2cc(c1)C(=O)N[C@H]([C@H](O)CNCc1cccc(C(C)C)c1)Cc1cccc(c1)OCCCCN2
